Test results published in US8673908B2, “Kynurenine production inhibitor” (Kyowa Hakko Kirin Co., Ltd., priority 2008, dated 2014).

Tested on: kynurenine production in IFN-γ-treated KATO-III cells
Assay: Inhibitory activity on kynurenine production (Test Example 1)
Format: cell-based
Conditions: Homo sapiens, IFN-γ treatment, culture for 96 hours, read-out: IC50 value, inhibition of kynurenine production
In short: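 KATO-III human gastric cancer cells (2,000/well, RPMI 1640 + 10% FBS) were cultured with compound and IFN-γ (31.25 ng/mL in the cell suspension), DMSO ≤0.1%, for 96 h at 37 °C, 5% CO2. Kynurenine was read at A480 after TCA at 65 °C and p-dimethylaminobenzaldehyde. Inhibition used IFN-γ-treated and untreated DMSO wells as references.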

| Structure (SMILES) | IC50 |
| --- | --- |
| CCCS(=O)(=O)Nc1nc2ccccc2nc1O[C@@H](c1cccnc1)C(F)(F)F [Compound 313, (S)—N-{3-[2,2,2-trifluoro-1-(pyridin-3-yl)ethoxy]-quinoxalin-2-yl}propane-1-sulfonamide] | 1 to 10 µM |
| O=S(=O)(Nc1nc2ccccc2nc1O[C@H](c1cccnc1)C(F)(F)F)NC1CC1 [Compound 317, (R)—N-cyclopropyl-N′-{3-[2,2,2-trifluoro-1-(pyridin-3-yl)-ethoxy]quinoxalin-2-yl}sulfuric diamide] | < 1 µM |
| CCCS(=O)(=O)Nc1nc2ccccc2nc1O[C@H](c1ccc(C)nc1)C(F)(F)F [Compound 319, (R)—N-{3-[2,2,2-trifluoro-1-(6-methylpyridin-3-yl)ethoxy]-quinoxalin-2-yl}propane-1-sulfonamide] | < 1 µM |
| O=S(=O)(Nc1nc2ccccc2nc1OC(C(F)(F)F)C(F)(F)F)c1ccccc1Cl [Compound 321, 2-chloro-N-{3-[(1,1,1,3,3,3-hexafluoropropan-2-yl)oxy]-quinoxalin-2-yl}benzenesulfonamide] | < 1 µM |
| CCCS(=O)(=O)Nc1nc2ccccc2nc1OC(C(F)(F)F)C(F)(F)F [Compound 322, N-{3-[(1,1,1,3,3,3-hexafluoropropan-2-yl)oxy]quinoxalin-2-yl}propane-1-sulfonamide] | < 1 µM |
| CCCNS(=O)(=O)Nc1nc2ccccc2nc1OC(c1cnc(C)s1)C(F)(F)F (stereo not drawn) [Compound 323, N-propyl-N′-{3-[2,2,2-trifluoro-1-(2-methylthiazol-5-yl)-ethoxy]quinoxalin-2-yl}sulfuric diamide] | < 1 µM |
| Cc1ncc(C(Oc2nc3ccccc3nc2NS(=O)(=O)NC2CC2)C(F)(F)F)s1 (stereo not drawn) [Compound 324, N-cyclopropyl-N′-{3-[2,2,2-trifluoro-1-(2-methylthiazol-5-yl)ethoxy]quinoxalin-2-yl}sulfuric diamide] | < 1 µM |
| CCCS(=O)(=O)Nc1nc2ccccc2nc1OC(C1CCN(C)CC1)C(F)(F)F (stereo not drawn) [Compound 326, N-{3-[2,2,2-trifluoro-1-(1-methylpiperidin-4-yl)ethoxy]-quinoxalin-2-yl}propane-1-sulfonamide] | 1 to 10 µM |
| CCCNS(=O)(=O)Nc1nc2ccccc2nc1OC(C1CCN(C)CC1)C(F)(F)F (stereo not drawn) [Compound 328, N-propyl-N′-{3-[2,2,2-trifluoro-1-(1-methylpiperidin-4-yl)ethoxy]quinoxalin-2-yl}sulfuric diamide] | 1 to 10 µM |
| CCCS(=O)(=O)Nc1nc2ccccc2nc1OC(C1CCN(C(C)=O)CC1)C(F)(F)F (stereo not drawn) [Compound 330, N-{3-[2,2,2-trifluoro-1-(1-acetylpiperidin-4-yl)ethoxy]-quinoxalin-2-yl}propane-1-sulfonamide] | < 1 µM |
| CCCS(=O)(=O)Nc1nc2ccccc2nc1OC(c1cncc(C)c1)C(F)(F)F (stereo not drawn) [Compound 331, N-{3-[2,2,2-trifluoro-1-(5-methylpyridin-3-yl)ethoxy]-quinoxalin-2-yl}propane-1-sulfonamide] | < 1 µM |
| CCCS(=O)(=O)Nc1nc2ccccc2nc1OC(c1cncc(F)c1)C(F)(F)F (stereo not drawn) [Compound 332, N-{3-[2,2,2-trifluoro-1-(5-fluoropyridin-3-yl)ethoxy]-quinoxalin-2-yl}propane-1-sulfonamide] | < 1 µM |
| CCCS(=O)(=O)Nc1nc2ccccc2nc1OC(c1cncc(OC)c1)C(F)(F)F (stereo not drawn) [Compound 334, N-{3-[2,2,2-trifluoro-1-(5-methoxypyridin-3-yl)ethoxy]-quinoxalin-2-yl}propane-1-sulfonamide] | < 1 µM |
| CCCS(=O)(=O)Nc1nc2ccccc2nc1OC(c1cncc(Cl)c1)C(F)(F)F (stereo not drawn) [Compound 335, N-{3-[2,2,2-trifluoro-1-(5-chloropyridin-3-yl)ethoxy]-quinoxalin-2-yl}propane-1-sulfonamide] | < 1 µM |
| CCCS(=O)(=O)Nc1nc2ccccc2nc1OC(C1CCN(S(C)(=O)=O)CC1)C(F)(F)F (stereo not drawn) [Compound 336, N-{3-[2,2,2-trifluoro-1-(1-methanesulfonylpiperidin-4-yl)-ethoxy]quinoxalin-2-yl}propane-1-sulfonamide] | < 1 µM |
| CCCS(=O)(=O)Nc1nc2ccccc2nc1OC(C1CCN(C(=O)OC)CC1)C(F)(F)F (stereo not drawn) [Compound 337, N-{3-[2,2,2-trifluoro-1-(1-methoxycarbonylpiperidin-4-yl)-ethoxy]quinoxalin-2-yl}propane-1-sulfonamide] | < 1 µM |
| CCCS(=O)(=O)Nc1nc2ccccc2nc1OC(C1CCN(C(=O)CC)CC1)C(F)(F)F (stereo not drawn) [Compound 340, N-{3-[2,2,2-trifluoro-1-(1-propionylpiperidin-4-yl)ethoxy]-quinoxalin-2-yl}propane-1-sulfonamide] | < 1 µM |
| CCCS(=O)(=O)Nc1nc2ccccc2nc1OC(C1CCN(C(=O)C2CC2)CC1)C(F)(F)F (stereo not drawn) [Compound 341, N-{3-[2,2,2-trifluoro-1-(1-cyclopropanecarbonylpiperidin-4-yl)ethoxy]quinoxalin-2-yl}propane-1-sulfonamide] | < 1 µM |
| CCCS(=O)(=O)Nc1nc2ccccc2nc1O[C@H](c1cnc(C)s1)C(F)(F)F [Compound 342, (S)—N-{3-[2,2,2-trifluoro-1-(2-methylthiazol-5-yl)ethoxy]-quinoxalin-2-yl}propane-1-sulfonamide] | < 1 µM |
| CCCS(=O)(=O)Nc1nc2ccccc2nc1O[C@@H](c1cnc(C)s1)C(F)(F)F [Compound 343, (R)—N-{3-[2,2,2-trifluoro-1-(2-methylthiazol-5-yl)ethoxy]-quinoxalin-2-yl}propane-1-sulfonamide] | 1 to 10 µM |

Now from value to molecule:

| IC50 | Structure (SMILES) |
| --- | --- |
| < 1 µM | CCCNS(=O)(=O)Nc1nc2ccccc2nc1OC(c1ccc(C#N)cc1)C(F)(F)F (stereo not drawn) [Compound 292, N-{3-[1-(4-cyanophenyl)-2,2,2-trifluoroethoxy]quinoxalin-2-yl}-N′-propyl-sulfuric diamide] |
| < 1 µM | N#Cc1cccc(C(Oc2nc3ccccc3nc2NS(=O)(=O)NC2CC2)C(F)(F)F)c1 (stereo not drawn) [Compound 293, N-{3-[1-(3-cyanophenyl)-2,2,2-trifluoroethoxy]quinoxalin-2-yl}-N′-cyclopropyl-sulfuric diamide] |
| < 1 µM | O=S(=O)(Nc1nc2ccccc2nc1OC(C1CCOCC1)C(F)(F)F)NC1CC1 (stereo not drawn) [Compound 299, N-{3-[2,2,2-trifluoro-1-(tetrahydro-2H-pyran-4-yl)ethoxy]-quinoxalin-2-yl}-N′-cyclopropyl-sulfuric diamide] |
| < 1 µM | COCCS(=O)(=O)Nc1nc2ccccc2nc1OC(c1cccnc1)C(F)(F)F (stereo not drawn) [Compound 300, 2-methoxy-N-{3-[2,2,2-trifluoro-1-(pyridin-3-yl)ethoxy]-quinoxalin-2-yl}ethanesulfonamide] |
| < 1 µM | COCCCS(=O)(=O)Nc1nc2ccccc2nc1OC(c1cccnc1)C(F)(F)F (stereo not drawn) [Compound 301, 3-methoxy-N-{3-[2,2,2-trifluoro-1-(pyridin-3-yl)ethoxy]-quinoxalin-2-yl}propane-1-sulfonamide] |
| < 1 µM | CCCS(=O)(=O)Nc1nc2ccccc2nc1OC(c1ccc(Cl)cc1)C(F)(F)F (stereo not drawn) [Compound 302, N-{3-[1-(4-chlorophenyl)-2,2,2-trifluoroethoxy]quinoxalin-2-yl}propane-1-sulfonamide] |
| < 1 µM | O=S(=O)(CC1CC1)Nc1nc2ccccc2nc1OC(c1cccnc1)C(F)(F)F (stereo not drawn) [Compound 303, 1-cyclopropyl-N-{3-[2,2,2-trifluoro-1-(pyridin-3-yl)-ethoxy]quinoxalin-2-yl}methanesulfonamide] |
| < 1 µM | C=CCS(=O)(=O)Nc1nc2ccccc2nc1OC(c1cccnc1)C(F)(F)F (stereo not drawn) [Compound 304, N-{3-[2,2,2-trifluoro-1-(pyridin-3-yl)ethoxy]quinoxalin-2-yl}-2-propene-1-sulfonamide] |
| < 1 µM | Cc1ccc(C(Oc2nc3ccccc3nc2NS(=O)(=O)CC2CC2)C(F)(F)F)cn1 (stereo not drawn) [Compound 305, 1-cyclopropyl-N-{3-[2,2,2-trifluoro-1-(6-methylpyridin-3-yl)ethoxy]quinoxalin-2-yl}methanesulfonamide] |
| < 1 µM | Cc1ncc(C(Oc2nc3ccccc3nc2NS(=O)(=O)CC2CC2)C(F)(F)F)s1 (stereo not drawn) [Compound 306, 1-cyclopropyl-N-{3-[2,2,2-trifluoro-1-(2-methylthiazol-5-yl)ethoxy]quinoxalin-2-yl}methanesulfonamide] |
| < 1 µM | O=S(=O)(CC1CC1)Nc1nc2ccccc2nc1O[C@H](c1cccnc1)C(F)(F)F [Compound 307, (R)-1-cyclopropyl-N-{3-[2,2,2-trifluoro-1-(pyridin-3-yl)-ethoxy]quinoxalin-2-yl}methanesulfonamide] |
| < 1 µM | O=S(=O)(CC1CC1)Nc1nc2ccccc2nc1OC(c1ccc(Cl)nc1)C(F)(F)F (stereo not drawn) [Compound 308, 1-cyclopropyl-N-{3-[1-(6-chloropyridin-3-yl)-2,2,2-trifluoroethoxy]quinoxalin-2-yl}methanesulfonamide] |
| < 1 µM | N#Cc1cccc(C(Oc2nc3ccccc3nc2NS(=O)(=O)CC2CC2)C(F)(F)F)c1 (stereo not drawn) [Compound 309, 1-cyclopropyl-N-{3-[1-(3-cyanophenyl)-2,2,2-trifluoroethoxy]quinoxalin-2-yl}methanesulfonamide] |
| < 1 µM | CCCS(=O)(=O)Nc1nc2ccccc2nc1O[C@H](c1cccnc1)C(F)(F)F [Compound 312, (R)—N-{3-[2,2,2-trifluoro-1-(pyridin-3-yl)ethoxy]-quinoxalin-2-yl}propane-1-sulfonamide] |
| < 1 µM | CCCNS(=O)(=O)Nc1nc2ccccc2nc1O[C@H](c1cccnc1)C(F)(F)F [Compound 314, (R)—N-propyl-N′-{3-[2,2,2-trifluoro-1-(pyridin-3-yl)-ethoxy]quinoxalin-2-yl}sulfuric diamide] |
| < 1 µM | CCCS(=O)(=O)Nc1nc2ccccc2nc1OC(c1cnc(C)s1)C(F)(F)F (stereo not drawn) [Compound 315, N-{3-[2,2,2-trifluoro-1-(2-methylthiazol-5-yl)ethoxy]-quinoxalin-2-yl}propane-1-sulfonamide] |
